This note sets out measurements from patent US20100092479A1, “Compositions and methods for treatment of viral diseases” (CombinatoRx (Singapore) Pte. Ltd., priority 2008, published 2010).

Counter-ions that a name gives are not always drawn. Like-named read-outs stand apart in the source and are kept apart here.

For data set [1], the system named is HCV genotype 1b subgenomic replicon. The experiment in a line: cHTS luciferase assay (viral inhibition) in Huh-luc/neo-ET cells, Experiment 2. The following applies: single agent; for IC50: Hepatitis C virus, Huh-luc/neo-ET, replicon luciferase activity, 48 hours, read-out: IC50, HCV replication. The data set is classed as cell-based. Here is the method:
(§1) The human hepatoma cell line Huh-7^1 and Huh-luc/neo-ET cells (ReBLikon, GmbH) were maintained in Dulbecco's modified Eagle's medium (DMEM; Gibco Invitrogen) supplemented with 10% Fetal Bovine Serum (FBS, Gibco Invitrogen),1% Penicillin/Streptomycin (Gibco Invitrogen), 1% Gluta MAX-1 (Gibco Invitrogen) and 1% Non-Essential Amino Acids Solution (Gibco Invitrogen) at 37° C., 5% CO2. Huh-luc/neo-ET cells were grown in medium additionally supplemented with 250 ug/ml Geneticin (G418, Gibco Invitrogen). These cells stably express an HCV genotype 1b subgenomic replicon encoding firefly (Photinus pyralis) luciferase, the coding sequence for ubiquitin and neomycin phosphotransferase downstream of the HCV IRES and upstream of an EMCV IRES which mediates translation of downstream viral nonstructural proteins NS3 to NS5B^2. For all experimental procedures Huh-luc/neo-ET and Huh-7 parental cells were seeded in DMEM without phenol red in the absence of G418 and Penicillin/Streptomycin (screening medium).
(§2) Cells were seeded in 30 μl of screening medium at 4000 cells/well on white (Huh-luc/neo-ET cells for viral inhibition assay) or black (Huh7 cells for proliferation inhibition assay) 384-well assay plates (Matrix) and incubated overnight for approximately 20 hours. Using a MiniTrak™ Robotic Liquid Handling System (Perkin-Elmer) 1 μl of compound stock solutions (1000× concentration in DMSO unless otherwise mentioned) in an X (2-fold dilutions of compound horizontally arrayed) or Y (2-fold dilutions of compound vertically arrayed) format was transferred from master plates into 384-well clear bottom plates containing 100 μl screening medium (dilution plates) and mixed thoroughly. From each X and Y dilution plate, 3.3 μl was subsequently transferred to the 384-well assay plates for a final compound dilution of 1:1000 generating a 9×9 (81-point) dose response matrix. The cells were then incubated for 48 hours prior to measuring luciferase activity (viral inhibition) or ATP depletion (proliferation inhibition). 25 μl of SteadyLite (Perkin-Elmer) was added to the white 384-well assay plates and 15 μl of ATPLite (Perkin-Elmer) was added to the black 384-well plates which were subsequently incubated at least 5 minutes before measuring the luminescent signal. All luminescence measurements were assayed for 0.1 sec per well with an EnVision™ Xcite multilabel automatic plate reader with Enhanced Luminescence (Perkin-Elmer) and expressed as the number of relative light units (RLU) detected. Compounds were assayed in duplicate 9×9 dose matrices on each plate and DMSO-only control wells were included as negative untreated controls.
Dose matrices were assembled from replicate combination blocks on experimental 384-well pates. Raw phenotype measurements T from each treated well were converted to normalized measures of inhibitory activity a=−log10(TN) or fractional inhibition I=1−T/V relative to the median V of 20 vehicle-treated wells arranged around the plate. After normalization, we calculated average activity values between replicate measurements at the same treatment doses, along with σ1σ1, the accompanying standard error estimates. Single agent responses were tested at eleven serially-diluted doses and combination data as 9×9 dose matrices each testing all pairs of 8 serially-diluted single agent concentrations along with their single agent doses as a control.
(§3) The resulting impact on viral replication, as measured by replicon luciferase activity, is shown as dose response curves in FIG. 1a. A host proliferation counterscreen measuring cellular ATP levels was assessed in parallel using the Huh7 parental cell line and the data were used to evaluate the selectivity of each probe. All of the compounds tested produced either increases (proviral) or decreases (antiviral) in replicon replication.
(In antiviral work, replicon cells carry a viral genome segment that copies itself.)

The subject of another data set is Huh7 parental cell line. Kind of data set: Host proliferation counterscreen measuring cellular ATP levels (ATPLite). The data set is classed as cell-based, human. As for the experimental part:
as §1, §2, §3

For the next data set, the system named is HMGCR. Kind of data set: HMGCR protein expression by western analysis in Huh7 cells. To be noted: Huh7 cells treated 16 hrs, GAPDH control. The data set is classed as cell-based, human.
The subject of data set [2] is Huh7 cells expressing a subgenomic RNA replicon of Con1 (genotype 1b). Kind of data set: HCV replicon assay (luciferase, SteadyLite), Example 1. Type of data set: cell-based. The following applies: single agent; for Emax: read-out: Max Eff (maximum effect, inhibition of viral replication); for IC50: read-out: IC50 (concentration required to achieve 50% inhibition of viral replication). Here is the method: The HCV replicon assay enables screening of compounds with antiviral activity against HCV viral RNA replication. Huh7 cells expressing a subgenomic RNA replicon of Con1 (genotype 1b) sequence origin and expressing the reporter enzyme luciferase were obtained from ReBLikon, GmBH. In order to perform the assay, replicon cells were seeded on a 384-well plate at 4,000 cells/well in a total volume of 30 μL well. The plated cells were incubated at 37° C., 5% CO2. Pre-diluted compounds at a 10× concentration were added to each well to achieve the desired final concentration. Plates were centrifuged at 900×g, 1 minute following the addition of compounds. Cells were incubated an additional 48 hours or 72 hours at 37° C., 5% CO2. Plates were removed from the incubator 30 minutes to 1 hour prior to the addition of 25 μL/well of SteadyLite luciferase assay reagent from Perkin Elmer in order to equilibrate plates to room temperature. Following the addition of SteadyLite reagent, cells were allowed to incubate for 10 minutes prior to collecting data with a luminometer. Antiviral activity was quantified by the inhibition of luciferase activity.
For screens involving a combination of compounds, a synergy score was calculated by the formula S=log fX log fYΣIdata(Idata−/ILoewe), summed over all non-single-agent concentration pairs, and where log fX,Y are the natural logarithm of the dilution factors used for each single agent. This effectively calculates a volume between the measured and Loewe additive response surfaces, weighted towards high inhibition and corrected for varying dilution factors. […] In general, the magnitude of the synergy score indicates the strength of the synergistic interaction.

Setting [3] is: single agent, Huh7 parental cells.

Procedure for HMGCR: For protein expression analysis, Huh-luc/neo-ET cells were seeded in 4 ml of medium at 250,000 cells per well on 6-well plates and allowed to adhere for 6-8 hours. Stock solutions of compound were added at a 1:1000 dilution and cells were incubated in the presence of compound over 96 hours. Medium and compounds were refreshed once after an initial incubation of 48 hours. Cells were washed in phosphate-buffered saline (PBS, Invitrogen-Gibco) and lysed by the addition of 1× RIPA lysis buffer (0.5 M Tris-HCl, pH 7.4/1.5 M NaCl/2.5% deoxycholic acid/10% NP-40/10 mM EDTA, purchased from Upstate) containing Complete, Mini Protease inhibitor cocktail and PhosSTOP phosphatase inhibitor cocktail tablets (Roche) according to the manufacturer's recommendations. Cell lysates were rocked for 30 minutes at 4° C. and centrifuged at 10,000×g for 10 minutes at 4° C. The protein concentration of each extract was determined by BCA protein assay (Pierce) according to the manufacturer's protocol. […]
To determine the effects of our chemical inhibitors on HMGCR expression, we treated Huh7 cells with the listed concentrations of each chemical for 16 hrs (FIG. 4b). Cell lysates were extracted according to the methods and HMGCR protein expression was analyzed by SDS-PAGE separation and western staining with antibodies specific for HMGCR and GAPDH.

For the compound `CCN(CC)CCO[C@H]1CC[C@@]2(C)C(=CC[C@@H]3[C@@H]2CC[C@]2(C)C(=O)CC[C@@H]32)C1` [U18666A], in data set [1], the IC50 came to 0.0194 µM and the “HCV replication (replicon luciferase activity), result in words” value (“HCV replication” for short) is “inhibited HCV replication”. Also, the “impact on host cell ATP levels” value in the data set with Huh7 parental cell line (setting [3]) was “marginal impact”. In addition, the HMGCR protein expression result in the data set on HMGCR is “apparent overexpression”.

On to `CCC(C)(C)c1ccc(CC(C)CN2C[C@@H](C)O[C@@H](C)C2)cc1` (some centres unmarked) [amorolfine, Amorolfine], for which the “HCV replication” value in data set [1] is “inhibited HCV replication”. In addition, the “impact on host cell ATP levels” value with Huh7 parental cell line (setting [3]) was “marginal impact”.

Take `O=C(c1ccc(Cl)cc1)N1CCC(=Cc2ccc(C3=NCCO3)cc2)CC1` [BIBB-515]: in data set [2] (Hepatitis C virus, Huh-7), the Emax amounted to 46%.

Regarding `CCC(C)(C)c1ccc(CC(C)CN2C[C@@H](C)O[C@@H](C)C2)cc1` (some centres unmarked) [Amorolfine hydrochloride, Amorolfine], in data set [2] (Hepatitis C virus, Huh-7), the IC50 was 7.66 µM and the Emax came out at 62%.

In the case of `COC(=O)[C@H](CC(C)C)NC(=O)c1ccc(NC[C@@H](N)CS)cc1-c1ccccc1` [GGTI-286], in data set [2] (Hepatitis C virus, Huh-7), the IC50 came to 3.7 µM and the Emax is 79%.

As to `CCCCCCCCCCCCCCOc1ccc(C(=O)O)o1` [TOFA, 5-(tetradecyloxy)-2-furancarboxylic acid], in data set [2] (Hepatitis C virus, Huh-7), the IC50 came out at 6.25 µM and the Emax is 95%.

In the case of `Clc1ccccc1CNC[C@H]1CC[C@H](CNCc2ccccc2Cl)CC1` [AY-9944], in data set [2] (Hepatitis C virus, Huh-7), the IC50 was determined as 2.52 µM and the Emax stood at 85%.

With `CCN(CC)CCOc1ccc(/C(=C(\Cl)c2ccccc2)c2ccccc2)cc1` [Clomiphene citrate, Clomiphene], the Emax in data set [2] (Hepatitis C virus, Huh-7) was 86%.

Turning to `CC(C)CCCC(C)[C@H]1CC(=O)C2=C3CC[C@H]4C[C@@H](O)CC[C@]4(C)C3CC[C@@]21C` (some centres unmarked) [Colestolone], the “HCV replication” value in data set [1] was “inhibited HCV replication”. In addition, in data set [2] (Hepatitis C virus, Huh-7), the IC50 came to 1.62 µM and the Emax was 79%. In addition, in the data set on Huh7 parental cell line (setting [3]), the “impact on host cell ATP levels” value is recorded as “marginal impact”.

Regarding `CC(C)n1c(/C=C/C(O)CC(O)CC(=O)O)c(-c2ccc(F)cc2)c2ccccc21` (centres unmarked) [Fluvastatin], in data set [2] (Hepatitis C virus, Huh-7), the IC50 is 15.8 µM and the Emax came to 65%.

Take `CCN(CC)CCOc1ccc(C(O)(Cc2ccc(Cl)cc2)c2ccc(C)cc2)cc1` (centres unmarked) [Triparanol]: in data set [2] (Hepatitis C virus, Huh-7), the IC50 worked out at 1.55 µM and the Emax amounted to 87%.

For the compound `C=CCN(C)CCCCCCOc1ccc(C(=O)c2ccc(Br)cc2)c(F)c1` [Ro 48-8071], in data set [1], the IC50 was found to be 0.0683 µM and the “HCV replication” value is “inhibited HCV replication”. Also, in data set [2] (Hepatitis C virus, Huh-7), the IC50 worked out at 0.06 µM and the Emax is 66%. In addition, the “impact on host cell ATP levels” value in the data set on Huh7 parental cell line (setting [3]) is reported as “marginal impact”. Besides, the HMGCR protein expression result in the data set with HMGCR is reported as “apparent overexpression”.

In the case of `CCOP(=O)(OCC)C(=Cc1cc(C(C)(C)C)c(O)c(C(C)(C)C)c1)P(=O)(OCC)OCC` [SR 12813], the “Max Eff (maximum effect, inhibition of viral replication)” value in data set [2] was 47.

Terconazole: in data set [2], the “Max Eff (maximum effect, inhibition of viral replication)” value was determined as 95 and the IC50 came to 1.66 µM.

With `CC[C@H](C)C(=O)O[C@H]1CCC=C2C=C[C@H](C)[C@H](CC[C@@H]3C[C@@H](O)CC(=O)O3)[C@H]21` [Mevastatin], in data set [2] (Hepatitis C virus, Huh-7), the IC50 came to 0.6 µM and the Emax worked out at 101%.

Take `CCCCCCC(=O)CCCCCC/C=C/C[C@@H](O)[C@H](O)[C@@](N)(CO)C(=O)O` [Myriocin]: the Emax in data set [2] (Hepatitis C virus, Huh-7) worked out at 33%.

On to `CCC(C)(C)C(=O)O[C@H]1C[C@@H](C)C=C2C=C[C@H](C)[C@H](CC[C@@H]3C[C@@H](O)CC(=O)O3)[C@H]21` [Simvastatin], for which, in data set [2] (Hepatitis C virus, Huh-7), the IC50 stood at 14 µM and the Emax stood at 71%.

On to `CC[C@H](C)C(=O)O[C@H]1C[C@@H](C)C=C2C=C[C@H](C)[C@H](CC[C@@H]3C[C@@H](O)CC(=O)O3)[C@H]21` [Lovastatin], for which, in data set [2] (Hepatitis C virus, Huh-7), the IC50 is 1.64 µM and the Emax came to 102%.

Regarding `O=C([O-])C[C@H](O)C[C@H](O)/C=C/c1c(C2CC2)nc2ccccc2c1-c1ccc(F)cc1.O=C([O-])C[C@H](O)C[C@H](O)/C=C/c1c(C2CC2)nc2ccccc2c1-c1ccc(F)cc1.[Ca+2]` [Itavastatin, calcium salt, Itavastatin], in data set [2], the “Max Eff (maximum effect, inhibition of viral replication)” value was found to be 92 and the IC50 came to 2.3 µM.

Take `C[C@@H](Cc1ccc(C(C)(C)C)cc1)CN1C[C@@H](C)O[C@@H](C)C1` [fenpropimorph, Fenpropimorph]: the “HCV replication” value in data set [1] is reported as “inhibited HCV replication”. In addition, the “impact on host cell ATP levels” value with Huh7 parental cell line is recorded as “marginal impact”.
